Laboratory results from US7951804B2, “Piperidinyl compounds” (Merck Patent GmbH, priority 2003, dated 2011).
pIC50: −log10 of the molar value. Where a name gives a salt, the structure may show the parent alone.

Key:
FXa = FXa (Homo sapiens, UniProt P00742); experiment: Factor Xa inhibition (FXa-IC50); format: biochemical
From the text: The inhibition of factor Xa by the compounds according to the invention and the measurement of the anticoagulant and antithrombotic activity can be determined by conventional in-vitro or in-vivo methods. A suitable method is described, for example, by J. Hauptmann et al. in Thrombosis and Haemostasis 1990, 63, 220-223.
The inhibition of factor Xa can be measured, for example, by the method of T. Hara et al. in Thromb. Haemostas. 1994, 71, 314-319.

TF/FVIIa = TF/FVIIa (Homo sapiens, UniProt P08709); experiment: TF/factor VIIa inhibition (TF/FVIIa-IC50); format: biochemical
Chain of TF/FVIIa (P08709 213-466 limits assumed): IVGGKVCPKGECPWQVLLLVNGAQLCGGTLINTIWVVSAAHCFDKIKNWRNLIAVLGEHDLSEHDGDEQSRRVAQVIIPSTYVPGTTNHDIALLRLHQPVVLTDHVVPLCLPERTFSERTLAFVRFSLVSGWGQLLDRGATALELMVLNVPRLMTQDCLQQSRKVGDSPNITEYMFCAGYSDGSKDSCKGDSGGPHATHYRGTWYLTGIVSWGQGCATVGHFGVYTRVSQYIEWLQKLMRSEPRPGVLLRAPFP
Chain of TF/FVIIa (P08709 61-212 partner limits assumed): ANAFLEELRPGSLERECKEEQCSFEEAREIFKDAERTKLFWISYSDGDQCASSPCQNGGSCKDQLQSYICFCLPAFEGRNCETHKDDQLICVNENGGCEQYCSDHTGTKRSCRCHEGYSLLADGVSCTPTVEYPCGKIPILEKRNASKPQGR
Chain of TF/FVIIa (P13726 33-295 partner): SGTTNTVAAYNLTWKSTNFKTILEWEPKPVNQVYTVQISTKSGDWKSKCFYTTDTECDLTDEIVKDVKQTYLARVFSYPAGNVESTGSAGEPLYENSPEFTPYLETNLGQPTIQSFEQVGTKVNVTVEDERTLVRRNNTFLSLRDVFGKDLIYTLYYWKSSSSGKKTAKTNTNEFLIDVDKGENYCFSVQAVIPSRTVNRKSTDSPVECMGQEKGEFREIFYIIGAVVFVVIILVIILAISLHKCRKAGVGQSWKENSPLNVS
From the text: The inhibition of factor VIIa by the compounds according to the invention and the measurement of the anticoagulant and antithrombotic activity can be determined by conventional in-vitro or in-vivo methods. A conventional method for the measurement of the inhibition of factor Vila is described, for example, by H. F. Ronning et al. in Thrombosis Research 1996, 84, 73-81.

Chain of FXa (P00742 235-488 limits assumed): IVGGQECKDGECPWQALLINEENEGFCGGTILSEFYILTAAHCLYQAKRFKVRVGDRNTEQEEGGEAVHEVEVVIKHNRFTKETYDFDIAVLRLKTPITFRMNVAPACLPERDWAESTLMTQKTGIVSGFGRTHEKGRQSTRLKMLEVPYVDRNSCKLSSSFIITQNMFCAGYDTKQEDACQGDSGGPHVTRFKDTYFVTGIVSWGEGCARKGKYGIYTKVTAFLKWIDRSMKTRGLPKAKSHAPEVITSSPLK
Chain of FXa (P00742 41-179 partner limits assumed): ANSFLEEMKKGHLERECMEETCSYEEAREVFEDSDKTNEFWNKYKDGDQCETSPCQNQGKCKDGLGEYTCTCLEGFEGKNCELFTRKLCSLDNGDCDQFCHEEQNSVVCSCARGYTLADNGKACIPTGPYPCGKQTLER

| SMILES | pIC50 (FXa) | pIC50 (TF/FVIIa) |
| --- | --- | --- |
| CN1CCC(C2CCN(C(=O)[C@H](NC(=O)Nc3ccc(Cl)cc3)c3ccccc3)CC2)CC1 [Compound 1, (R)-1-(4-chlorophenyl)-3-[2-(1′-methyl-4,4′-bipiperidinyl-1-yl)-2-oxo-1-phenylethyl]urea] | 8.22 | 8.16 |
| O=C(Nc1ccc(Cl)cc1)N[C@@H](C(=O)N1CCN(c2ccc(F)cc2)CC1)c1ccccc1 [Compound 2, (R)-1-(4-chlorophenyl)-3-{2-[4-(4-fluorophenyl)piperazin-1-yl]-2-oxo-1-phenylethyl}urea] | 6.17 | 5.77 |
| CN1CCC(C2CCN(C(=O)[C@H](OC(=O)Nc3ccc(Cl)cc3)c3ccccc3)CC2)CC1 [Compound 49, 2-(1′-methyl-4,4′-bipiperidinyl-1-yl)-2-oxo-1-phenylethyl (R)-4-chlorophenyl)carbamate trifluoroacetate] | 7.96 | 7.82 |
| CN1CCC(N2CCN(C(=O)[C@H](NC(=O)Nc3ccc(Cl)cc3)c3ccccc3)CC2)CC1 [Compound 5, (R)-1-(4-chlorophenyl)-3-{2-[4-(1-methylpiperidin-4-yl)piperazin-1-yl]-2-oxo-1-phenylethyl}urea bistrifluoroacetate] | 7.77 | 8.20 |
